Reference: patent US9284299B2, “Substituted 1H-indazol-1-ol analogs as inhibitors of beta catenin/Tcf protein-protein interactions” (UNIVERSITY OF UTAH RESEARCH FOUNDATION, priority 2012, dated 2016)
Read-outs that look alike come from different tables or passages of the source.

How the values were obtained:
[1] = test system: HCT 116 colon cancer cell line; experiment: MTS-based cell proliferation inhibition assay; details: 72 h, dose-dependent (FIG. 2)
Method: The cell proliferation agent, 3-(4,5-dimethylthiazol-2-yl)-5-(3-carboxymethoxyphenyl)-2-(4-sulfophenyl)-2H-tetrazolium (“MTS”), was purchased from Promega (Madison, Wis.) and phenazinemethosulfate from Sigma-Aldrich (St. Louis, Mo.). Cultured cell lines were seeded in 96-well plates at 3×10^3 cells/well, maintained overnight at 37° C., and incubated in the presence of the tested compounds at various concentrations. […] Cells were incubated in 10 μL of this solution at 37° C. for 3 h and the UV absorption at 490 nm was measured. Vehicle-treated cells was used as the negative control. The IC50 values and the Hill slopes were generated using Graphpad Prism 5.0. All data were expressed as mean±SD.

[2] = target: β-catenin/Tcf4 interaction (Homo sapiens (Human), UniProt P35222); experiment: Fluorescence polarization (FP) competitive inhibition assay, β-catenin/Tcf4; format: binding
Chain of β-catenin/Tcf4 interaction (P35222 138-686): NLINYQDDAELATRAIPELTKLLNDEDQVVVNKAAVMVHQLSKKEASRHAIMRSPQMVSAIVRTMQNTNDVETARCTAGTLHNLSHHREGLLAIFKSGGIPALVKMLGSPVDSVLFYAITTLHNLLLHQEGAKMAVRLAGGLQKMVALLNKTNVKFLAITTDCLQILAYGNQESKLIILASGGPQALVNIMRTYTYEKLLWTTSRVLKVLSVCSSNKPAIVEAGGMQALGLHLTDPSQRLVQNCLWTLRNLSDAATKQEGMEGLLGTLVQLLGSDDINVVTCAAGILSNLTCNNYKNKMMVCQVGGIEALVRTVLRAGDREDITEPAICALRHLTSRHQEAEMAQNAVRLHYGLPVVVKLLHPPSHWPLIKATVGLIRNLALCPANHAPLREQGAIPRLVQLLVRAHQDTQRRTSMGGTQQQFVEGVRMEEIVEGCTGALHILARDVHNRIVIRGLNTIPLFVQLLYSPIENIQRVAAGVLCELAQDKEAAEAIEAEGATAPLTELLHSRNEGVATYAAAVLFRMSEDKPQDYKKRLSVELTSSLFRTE
Method: Experiments were performed in 96-well Microfluor 2 black plates (Waltham, Mass.), and the samples were read by a Synergy 2 plate reader (Biotek, Winooski, Vt.). […] The final reaction volume is 100 μL.
In the foregoing equation, mP, is the signal of the positive control; mPbound is the signal of the negative control; and mP is the signal of the tested inhibitor compound.

[3] = Table 2, mean ± standard deviation (n=3), read-out: Ki FP

Row | Ki [2, 3] [µM] | Molecule | Inhibition of proliferation of colon cancer cell line HCT116 [1] | Ki ([2]; Table IV, FP assay, read-out: Ki ± SD β-catenin/Tcf4) [µM]
1 | – | 5-(2-(2H-TETRAZOL-5-YL)ETHYL)-1H-INDAZOL-1-OL [Compound 12] | inhibit the proliferation | –
2 | 125 ± 1.3 | O=c1[nH]c(Cc2ccc3c(cnn3O)c2)no1 [Compound 10, 3-((1-HYDROXY-1H-INDAZOL-5-YL)METHYL)-1,2,4-OXADIAZOL-5(4H)-ONE] | – | –
3 | 165.4 ± 1.45 | O=c1[nH]c(Cc2ccc3c(c2)nnn3O)no1 [Compound 2, 3-((1-HYDROXY-1H-BENZO[D][1,2,3]TRIAZOL-5-YL)METHYL)-1,2,4-OXADIAZOL-5(4H)-ONE] | – | –

Row | Molecule | Ki [2, 3] [µM] | Inhibition of proliferation of colon cancer cell line HCT116 [1] | Ki ([2]; Table IV, FP assay, read-out: Ki ± SD β-catenin/Tcf4) [µM]
4 | COc1c(C[C@@H](C)OC(=O)Oc2ccc(O)cc2)c2c3c(C[C@@H](C)OC(=O)c4ccccc4)c(OC)c(=O)c4c(O)cc(OC)c(c5c(OC)cc(O)c(c1=O)c52)c43 [PKF115-584, reference compound] | 17.8 ± 2.13 | – | 17.8 ± 2.13
